From patent publication US20080058409A1, “Esterified Catechins, Processes for Producing the Same, and Foods and Beverages as well as Cosmetics Containing Such Esterified Catechins” (priority 2005, published 2008)

Tests used:
[1] = test system: Alicyclobacillus acidoterrestris; experiment: Assay of antibacterial activity (growth inhibition) against heat-resistant acidophilic spore-forming bacterium Alicyclobacillus acidoterrestris; assay type: cell-based; conditions: culture temperature 45° C., liquid medium (yeast extract, soluble starch, glucose) adjusted to pH 3.8
Method: (§1) Into each well, 50 μl of a nutrient broth (pH 7.0, NISSUI PHARMACEUTICAL CO., LTD.) was added and cultured overnight at 37° C. The light absorbance at 690 nm was measured both at the start and end of the culture by means of a micro-plate reader (Thermolab Systems, Finland). Based on the percent growth inhibition calculated from the following formula, a distribution diagram was constructed plotting percent inhibition and sample concentration on the two axes and the 50% inhibition (IC50) of the spore forming bacterium by the substances of the present invention was determined. Percent growth inhibition (%)=100×{Δ690 (not added)−Δ690 (sample added)}/Δ690 (not added) where Δ690 (not added) refers to the difference between the 690 nm values in the “not-added” group before and after the culture and Δ690 (sample added) refers to the difference between the 690 nm values in the “sample-added” group before and after the culture.
Activity against the heat-resistant acidophilic spore-forming bacterium Alicyclobacillus acidoterrestris was determined by taking the same procedure, except that a change was made in two points, the culture temperature condition and the type of liquid medium [culture temperature: 45° C.; liquid medium: 0.4% dry yeast extract (Difco Laboratories), 0.4% soluble starch (nacalai tesque), 1% glucose (nacalai tesque), adjusted to pH 3.8 with 1 N sulfuric acid].

Bacillus subtilis spores = experiment: Assay of antibacterial activity (growth inhibition, absorbance at 690 nm) against Bacillus subtilis spores; assay type: cell-based; conditions: spores 1×10^7/ml, nutrient broth pH 7.0, cultured overnight at 37° C., percent growth inhibition from absorbance at 690 nm
Method: as §1

Question: What does the source list for “3′(or 4′),5-di-O-octanoyl-(+)-D-catechin”?
Answer: IC50 (ppm) A. acidoterrestris [1]: 6.25-12.5 ppm; IC50 (ppm) B. subtilis (Bacillus subtilis spores): 6.25-12.5 ppm

Question: `CCCCCCCC(=O)Oc1ccc([C@H]2Oc3cc(O)cc(O)c3C[C@@H]2O)cc1OC(=O)CCCCCCC` [3′4′-O-dioctanoyl-(+)-D-catechin] was tested. Which “IC50 (ppm) A. acidoterrestris” value [1] did it give?
Answer: 12.5-25 ppm

Question: What about the “IC50 (ppm) B. subtilis” value (Bacillus subtilis spores) of the same compound?
Answer: >400 ppm

Question: How did the “IC50 (ppm) A. acidoterrestris” value [1] turn out when “3′-O-cotanoyl and 4′-octanoyl-(+)-D-catechin” was run?
Answer: 25-50 ppm

Question: And the “IC50 (ppm) B. subtilis” value (Bacillus subtilis spores)?
Answer: 200-400 ppm

Question: Which “IC50 (ppm) A. acidoterrestris” value [1] does the source give for `CCCCCCCC(=O)Oc1cc(OC(=O)CCCCCCC)c2c(c1)O[C@H](c1ccc(O)c(O)c1)[C@@H](O)C2` [5,7-di-O-octanoyl-(+)-D-catechin] here?
Answer: 100-200 ppm

Question: What about the “IC50 (ppm) B. subtilis” value (Bacillus subtilis spores) of the same compound?
Answer: >400 ppm

Question: What does the source list for Catechin [reference compound]?
Answer: IC50 (ppm) A. acidoterrestris [1]: 50-100 ppm; IC50 (ppm) B. subtilis (Bacillus subtilis spores): >400 ppm

Question: Which “IC50 (ppm) A. acidoterrestris” value [1] does the source give for “Sucrose fatty acid ester [reference compound]” here?
Answer: 100-200 ppm

Question: What about the “IC50 (ppm) B. subtilis” value (Bacillus subtilis spores) of the same compound?
Answer: 50-100 ppm

Question: Which “IC50 (ppm) A. acidoterrestris” value [1] does the source give for `CCCCCCCC(=O)Oc1cc(O)c2c(c1)O[C@H](c1ccc(O)c(O)c1)[C@@H](OC(=O)CCCCCCC)C2` [3,7-di-O-octanoyl-(+)-D-catechin] here?
Answer: 12.5-25 ppm

Question: What about the “IC50 (ppm) B. subtilis” value (Bacillus subtilis spores) of the same compound?
Answer: 25-50 ppm

Question: `CCCCCCCC(=O)Oc1cc(O)cc2c1C[C@H](OC(=O)CCCCCCC)[C@@H](c1ccc(O)c(O)c1)O2` [3,5-di-O-octanoyl-(+)-D-catechin] was tested. Which “IC50 (ppm) A. acidoterrestris” value [1] did it give?
Answer: 50-100 ppm

Question: And the “IC50 (ppm) B. subtilis” value (Bacillus subtilis spores)?
Answer: 100-200 ppm

Question: Which “IC50 (ppm) A. acidoterrestris” value [1] does the source give for “3′(or 4′),7-di-O-octanoyl-(+)-D-catechin” here?
Answer: 50-100 ppm

Question: And the “IC50 (ppm) B. subtilis” value (Bacillus subtilis spores)?
Answer: 6.25-12.5 ppm

Question: How did the “IC50 (ppm) A. acidoterrestris” value [1] turn out when “3′(or 4′),3-di-O-octanoyl-(+)-D-catechin” was run?
Answer: 6.25-12.5 ppm

Question: What about the “IC50 (ppm) B. subtilis” value (Bacillus subtilis spores) of the same compound?
Answer: 3.125-6.25 ppm
